Measured values published in patent US11692194B2, “Modulating expression of polypeptides via new gene switch expression systems” (Precigen, Inc., priority 2017, dated 2023).

Experiments:
[1] = tested on: gene switch controlled mbIL-15 expression in CD19-specific CAR T cells; experiment: Flow cytometry of mbIL-15 expression, veledimex ON-OFF-ON, SB gene switch CD19 CAR-T cells; assay type: cell-based, human
Protocol: Various DNA plasmids expressing a SB transposon system, i.e. SB11, membrane bound IL-15 (mbIL-15), and chimeric antigen receptor (CAR), were transfected to peripheral blood mononuclear cells (PBMC) via nucleofection to redirect T cell specificity (FIG. 1).
On day 0, 20 million PBMC were resuspended in 100 μL of Amaxa Human T cell Nucleofector solution (Cat. no. VPA-1002; Lonza, Basel, Switzerland) mixed with a total of 15 μg of transposons and 5 μg of transposase (SB11) and electroporated.
The following day (day 1) cells were counted, and CAR expression was measured by flow cytometry. CAR T Cells were stimulated with either γ-irradiated (100 Gy) or mitomycin C treated AaPCs at a 1:1 ratio. The AaPC cells used were K562-AaPC expressing CD19 antigen. Cultures were supplemented with IL-21 (30 ng/ml) only for the first round of stimulation and subsequently with recombinant human IL-2 (50 IU/ml) and IL-21 (30 ng/ml) (Pepro Tech) for remaining stimulations. T cell cultures were phenotyped at the end of each stimulation cycle, which typically lasted 7 days. The cultures were phenotyped for CAR expression by multi-parameter flow cytometry utilizing either Protein L or anti-idiotype antibody that recognizes CD19-specific CAR. Cultures were also closely monitored for the outgrowth of NK cells (defined as CD3negCD56+ population) and were removed from the CAR T cell cultures when the percentage exceeded 10% of total cell populations using magnetic beads for specific for CD56 (Stem Cell Technologies and/or Miltenyi Biotec), according to the manufacturer's instructions.
CD19-specific T cells were generated from mononuclear cells (MNC) derived from PB or UCB using SB transposition to introduce the CAR followed by addition of AaPC to numerically expand the T cells in a CAR-dependent manner.
For flow cytometry analysis to assess expression of various markers and gene(s) of interest, cells were gently resuspended and cell number, and viability were measured using Trypan blue exclusion method with the Countess instrument. Cell diameter size was also recorded. 5×10^5 cells for each for the samples were harvested at 330×g for 4 min at 10° C. for antibody staining. Harvested cells were incubated on ice for at least 15 min with 10% human AB serum in HBSS. Antibody cocktails containing fluorescently conjugated antibodies included one or more of antibodies specific to CD4 (Clone RPA-T4), CD8 (Clone SK1), CD3 (Clone UCHT1), CD56, CD19-specific CAR (anti-idiotype antibody), IL-15, and IL-15Rα, in HBSS+0.1% BSA+2 mM EDTA. The prepared antibody cocktails and associated fluorescence minus one/isotype control were added to stain the cell samples, and then the samples were incubated on ice for 30 min. The samples were then washed then with FACS buffer (HBSS+0.5% BSA+2 mM EDTA) and stained with Fixable Viability Dye (eBiosciences) for 30 min on ice. Cells were washed with FACS buffer and then fixed with a 4% paraformaldehyde solution (BD Cytofix; BD Biosciences). All samples were run on a LSR II flow cytometer, a Fortessa X-20 flow cytometer (BD Biosciences) or iQue Screener Plus (Intellicyt) and data was analyzed using FlowJo V10 (TreeStar, Ashland, Oreg.) or iQue Screener software.
For induction of expression using ligand (veledimex), AaPC stimulated CAR-T cells were harvested at 1×10^6 cells/ml. Either veledimex or DMSO (to keep DMSO concentration constant in both cultures) was added to the cultures. Veledimex was used at a concentration of 20 nM, 50 nM, 100 nM or as described. Cells were then cultured at 37° C. in presence of veledimex or DMSO for 2-3 days. After 2-3 days in culture, 5×10^5 cells for each for the samples were harvested at 330×g for 4 min at 10° C. for antibody staining. Harvested cells were incubated on ice for at least 15 min with 10% human AB serum in HBSS. […]

[2] = tested on: RTS:mbIL15 in CAR T cells; experiment: Serine recombinase (SF370) integrated single vector CAR:HER1t+RTS:mbIL15, flow cytometry of mbIL15; assay type: cell-based
Protocol: Various DNA plasmids containing serine recombinase attachment sites and components of the gene switch system as depicted in FIG. 17 were transfected to peripheral blood mononuclear cells (PBMC) via nucleofection to redirect T cell specificity. Specifically, 3 single vectors were tested in the presence and absence of a serine recombinase, SF370:
(i) CAR:HER1t+constitutive mbIL15 (positive control)
(ii) CAR:HER1t+promoterless mbIL15 (negative control)
(iii) CAR:HER1t+RTS:mbIL15
The expression of the CAR and mbIL15 was evaluated weekly (at days 1, day 8, day 15 and day 22). Aliquots of cells were treated with either DMSO or veledimex 24-48 h prior to each flow to assess inducible mbIL15 expression. AaPC Clone 1 was added weekly at a 1:1 ratio with CAR+ cells.

CCC[C@@H](N(NC(=O)c1cccc(OC)c1CC)C(=O)c1cc(C)cc(C)c1)C(C)(C)C [veledimex, N-[(1R)-1-(1,1-dimethylethyl)butyl]-N′-(2-ethyl-3-methoxybenzoyl)-3,5-dimethylbenzohydrazide]
mbIL-15 expression versus veledimex concentration ([1]; 2 day incubation at 100, 25, 6.25, 1.56, 0.4 and 0 nM, gated FSC/SSC/LIVE/CD3+): dose response
expression of mbIL-15 post ligand addition ([1]; day 29 post nucleofection, gated on CD19-specific CAR positive populations): turned on
expression of mbIL-15 post ligand withdrawal ([1]; day 35 post nucleofection, gated on CD19-specific CAR positive populations): turned off
expression of mbIL-15 after re-introduction of ligand ([1]; day 40 post nucleofection, gated on CD19-specific CAR positive populations): maintained
expression of mbIL-15 after re-introduction of ligand ([1]; day 48 post nucleofection, gated on CD19-specific CAR positive populations): continuously maintained
expression of mbIL-15 after re-introduction of ligand ([1]; day 50 post nucleofection, gated on CD19-specific CAR positive populations): continuously maintained
mbIL15 expression after removal of veledimex ([2]; day 22): complete loss of mbIL15 expression
mbIL-15 expression on veledimex treatment ([2]; two weeks post-transfection, ~48 h treatment): induction of mbIL-15 expression
